Results as given in patent publication US20250327074A1 (SHAOXING INSTITUTE, ZHEJIANG UNIVERSITY, priority 2024, published 2025).

These molecules were tested on TCG codon, mammalian cells (assay: TCG codon recoding efficiency of all amino acids (Table 1)). Conditions: TCG codon recoding of the unnatural amino acid with the aaRS and mutation of the same table line; class symbols.
Format: cell-based
Excerpt: Specific details are shown in Table 1 below, where “wt” represents the wild-type aminoacyl-tRNA synthetase, “mutation sites” indicate the positions and types of mutations related to specific unnatural amino acid binding on the wild-type aminoacyl-tRNA synthetase, and “unnatural amino acid” represents the unnatural amino acid corresponding to the mutated aminoacyl-tRNA synthetase. In the unnatural amino acid encoding efficiency, “+” indicates a recoding efficiency greater than 40%, “++” greater than 60%, and “+++” greater than 80%.
Accordingly, this application compiles all amino acids reported in the literature that are recognized by orthogonal aminoacyl-tRNA synthetases in mammalian systems and evaluates their recoding efficiency using the TCG codon as an example.
In the case of `CCOc1cc(COC[C@H](N)C(=O)O)c([N+](=O)[O-])cc1OCC` [compound 402], the “Recoding rate (%)” value was “+++ (“+++” greater than 80%)”. With `C=CC[S+]([O-])C[C@@H](N)C(=O)O` (some centres unmarked) [compound 405] the “Recoding rate (%)” value was “+++ (“+++” greater than 80%)”. In the case of `C=CCCC[C@H](N)C(=O)O` [compound 406], the “Recoding rate (%)” value was “+++ (“+++” greater than 80%)”. `CC=CCOC[C@H](N)C(=O)O` [compound 408] was tested, and the “Recoding rate (%)” value was “+++ (“+++” greater than 80%)”. With `C=CCCCOC[C@H](N)C(=O)O` [compound 409] the “Recoding rate (%)” value was “+++ (“+++” greater than 80%)”. `N[C@@H](Cc1c[nH]c2ccc(Br)cc12)C(=O)O` [compound 414] was tested, and the “Recoding rate (%)” value was “+ (“+” indicates a recoding efficiency greater than 40%)”. For `C#CCOc1ccc2[nH]cc(C[C@H](N)C(=O)O)c2c1` [compound 415], the “Recoding rate (%)” value was “+ (“+” indicates a recoding efficiency greater than 40%)”. For `[N-]=[N+]=Nc1ccc2[nH]cc(C[C@H](N)C(=O)O)c2c1` [compound 416], the “Recoding rate (%)” value was “+ (“+” indicates a recoding efficiency greater than 40%)”. `Nc1ccc2[nH]cc(C[C@H](N)C(=O)O)c2c1` [compound 417] was tested, and the “Recoding rate (%)” value was “+ (“+” indicates a recoding efficiency greater than 40%)”.

Same assay, conditions: TCG codon recoding of the unnatural amino acid with the aaRS and mutation of the same table line; numeric values
For `CCOc1cc(CSC[C@H](N)C(=O)O)c([N+](=O)[O-])cc1OCC` [compound 403], the “Recoding rate (%)” value was 84%. With `CCOc1cc(C[Se]CC(N)C(=O)O)c([N+](=O)[O-])cc1OCC` (centres unmarked) [compound 404] the “Recoding rate (%)” value was 59%. `C=CCCCC[C@H](N)C(=O)O` [compound 407] was tested, and the “Recoding rate (%)” value was 81%. With `CC(=O)N(C)CCCC[C@H](N)C(=O)O` [compound 410] the “Recoding rate (%)” value was 83%. `N[C@@H](Cc1c[nH]c2ccc(O)cc12)C(=O)O` [compound 411] was tested, and the “Recoding rate (%)” value was 75%. In the case of `Cc1ccc2[nH]cc(C[C@H](N)C(=O)O)c2c1` [compound 412], the “Recoding rate (%)” value was 37%. With `COc1ccc2[nH]cc(C[C@H](N)C(=O)O)c2c1` [compound 413] the “Recoding rate (%)” value was 85%. `N[C@@H](Cc1c[nH]c2cccc(F)c12)C(=O)O` [compound 418] was tested, and the “Recoding rate (%)” value was 82%.
